Laboratory results reported in patent publication US20250249014A1, “A COMBINATION FOR TREATING A RETINAL DISEASE” (HADASIT MEDICAL RESEARCH SERVICES AND DEVELOPMENT LTD., priority 2022, published 2025).
Where a name gives a salt, the structure may show the parent alone. Read-outs that look alike come from different tables or passages of the source.

Experiments:
HUVECs [1] = test: Cell proliferation assay (WST-1) on HUVECs, with synergy analysis; format: cell-based, Human; details: for IC50 (inhibitory concentration of 50% cell growth compared to control) / IC50 / % of Inhibition ± SD: HUVECs proliferation; for dose-proliferation inhibition relationship: increasing SMI concentration; for IC50: Homo sapiens, HUVEC; for % of Inhibition ± SD: maximal attainable concentration of each SMI (28.421 μM, 17.85 μM, 20.99 μM); for effect of addition to the Azeliragon and EHop-016 combination on proliferation inhibition: CCR2-RA-[R] 22.74 μM
Protocol: Cell proliferation assay—The principle of cell proliferation assay is illustrated in FIG. 1. Briefly, HUVECS were seeded and maintained in EGM™-2 (Lonza Bioscience Solutions) medium for 24 hours. The cells were then treated with various dosages of SMI for designated time periods. Each experiment included a DMSO-treated control group. Tetrazolium salt was added according to the manufacturer's instructions and formation of formazan dye was quantified by measuring the absorbance at 440 nm using spectrophotometer. The formation of formazan dye is directly proportional to number of living cells.
Analysis of combined synergistic effect-Analysis of combined SMIs effect was determined from the results of the cell proliferation assay after 72 hours. SMIs synergy was determined by three synergy models. • 1. The Zero Interaction Potency (ZIP) model is a reference model for evaluating the effect of combination of two drugs by comparing the change in the potency of the dose-response curves between individual drugs and their combinations. A zip score higher than 10 is indicative of a synergistic combination, a zip score of between −10 and 10 is indicative of an additive combination and a zip score lower than −10 is indicative of an antagonistic combination. • 2. […] Values below 1 will represent synergism and above 1 antagonism.

HUVECs [2] = test: Endothelial cell migration assay (scratch test); format: cell-based, Human; details: EHop-016 0.8 μM at 11 hours, CCR2-RA-[R] 5 μM at 13 hours
Protocol: Endothelial cell migration assay (scratch test)—5×10^4 cells/200 μl of HUVECs were cultured in 96 wells Incucyte® ImageLock 96-well microplates plates to near confluence in EGM™-2 medium for 24 hours. Afterwards, a homogeneous, 700-800-micron wide scratch wounds were created using Incucyte® WoundMaker. Different SMIs concentrations vs. DMSO (solvent) were added. Serial images for 26 hours of the migrating cells were obtained hourly using a live cell imaging system (Incucyte®).

[3] = test system: Hypoxia-inducible factor 1-alpha (HIF-1α); test: Western blot of HIF-1α expression in HUVEC cells; format: cell-based, Human; details: 72 hours, combination Azeliragon 0.6 μM and EHop-016 1.3 μM
Protocol: Western blot—5×10^4 HUVEC cells were seeded in 10 cm dish in EGM™-2 medium for 24 hours. The cells were then treated with various dosages and combinations of SMI for 72 hours in addition to a control group treated with DMSO. Cells were lysed in WCE (whole-cell extraction) buffer [25 mM Hepes, pH 7.7, 0.3 M NaCl, 1.5 mM MgCl2, 0.2 mM EDTA, 0.1% Triton X-100, 0.5 mM DTT (dithiothreitol), 20 mM 2-glycerophosphate, 0.1 mM Na3VO4, 100 μg/ml PMSF and protease inhibitor cocktail (Sigma-Aldrich, 1:100 dilution)]. The proteins were then separated by SDS/PAGE (10% gel), followed by transfer on to a nitrocellulose membrane. Blots were blocked in 5% (w/v) non-fat dried skimmed milk powder in PBS and washed in PBS.

[4] = test system: choroidal neovascularization (CNV); test: Laser-Induced CNV model; format: in vivo, C57BL/6J mice; details: dosage calibration assays; EHop-016 30 μM, Aflibercept 41.27 μM
Protocol: Laser-Induced CNV Model—CNV was induced in C57BL/6J mice using argon green ophthalmic laser ([…], 50 μm, 0.1 sec) applied under fundoscopy to rupture Bruch's membrane. […] The injections were performed at the superotemporal sclera, where a perforating sclerotomy was made with 27-gauge (G) needle at approximately 1-2 mm from the limbus. Then, 1-2 μl of SMIs (solved in 5% Cremophor: 5% ethanol: 90% saline) vs. Sham were injected through the sclerotomy, under fundoscopy using 34 g microsyringe (Hamilton, Benfleet, UK).
Quantification of CNV—Eyes were enucleated, treated according to standard protocols. […] The flat mounts were then washed six times for 20 min each in PBS and mounted on a slide using mounting medium. The area of CNV surrounding each laser injury was measured using ImageJ software.

choroid explants = test: Choroid sprouting assay, ex-vivo; format: cell-based, C57BL/6J mice; details: 7 days; 0.55 μM Azeliragon, EHop-016 alone, 0.70 μM in combination; compared to untreated and DMSO
Protocol: Plates were then incubated for 10 minutes in 37° C., in a 5% CO2 cell culture incubator without medium to solidify the Matrigel™. […] Fresh medium and SMIs were replaced every two days and grown for 7 days (x3 time medium replaced).

VEGF = details: diabetic macular edema patients; cited from earlier work
[5] = HUVECs, single 72-hour treatment
[6] = single 72-hour treatment, read-out: IC50 (inhibitory concentration of 50% cell growth compared to control)

Chain of VEGF (P15692 207-311 limits assumed): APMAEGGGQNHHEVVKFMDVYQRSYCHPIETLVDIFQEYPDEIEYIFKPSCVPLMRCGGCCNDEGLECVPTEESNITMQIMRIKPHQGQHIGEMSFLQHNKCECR

## Cc1ccc(NC(=O)c2cccc(OCc3c(C)noc3C)c2)cc1S(N)(=O)=O (racemic) [Z62954982, 3-((3,5-Dimethylisoxazol-4-yl)methoxy)-N-(4-methyl-3-sulfamoyl-phenyl)benzamide]
HUVECs [1]; single 72-hour treatment
  IC50 (inhibitory concentration of 50% cell growth compared to control): No effect
HUVECs [1]; HUVECs, treatment time extended to 120 hours compared to 72-hour incubation
  inhibitory effect with longer incubation time: did not improve the inhibitory effect

## COc1ccc(/C=C/c2cc(O)cc(O)c2)cc1 [4′-Methoxyresveratrol, 5-[(E)-2-(4-Methoxyphenyl)ethen-1-yl]benzene-1,3-diol]
HUVECs [1]; [5]
  dose-proliferation inhibition relationship: linear inhibition of proliferation
HUVECs [1]; [6]
  IC50: 64 µM

## O=C(CNC(=O)c1cccc(C(F)(F)F)c1)N[C@@H]1CCN(Cc2ccc(Cl)cc2)C1 [CCR2 antagonist 4 hydrochloride, N-[2-[[(3R)-1-[(4-chlorophenyl)methyl]-3-pyrrolidinyl]amino]-2-oxoethyl]-3-(trifluoromethyl)benzamidehydrochloride]
HUVECs [1]
  % of Inhibition ± SD: 13.8 ± 8.07%

## CC(=O)C1=C(O)C(=O)N(c2ccc(Cl)cc2F)[C@@H]1C1CCCCC1 [CCR2-RA-[R], (R)-4-Acetyl-1-(4-chloro-2-fluorophenyl)-5-cyclohexyl-3-hydroxy-1,5-dihydro-2H-pyrrol-2-one]
HUVECs [1]
  inhibition of HUVECs proliferation (summary in words): did not show significant inhibition
  % of Inhibition ± SD: 33.4 ± 4.30%
HUVECs [1]; HUVECs, 24-hour treatment
  effect of addition to the Azeliragon and EHop-016 combination on proliferation inhibition: significantly augmented the proliferation inhibition effect
HUVECs [1]; HUVECs, 48- and 72-hour treatment
  effect of addition to the Azeliragon and EHop-016 combination on proliferation inhibition: not
HUVECs [2]
  inhibition of HUVECs migration: strongly inhibited cell migration

## CCn1c2ccccc2c2cc(Nc3ccnc(NCCCN4CCOCC4)n3)ccc21 [EHop-016, N4-(9-Ethyl-9H-carbazol-3-yl)-N2-[3-(4-morpholinyl)propyl]-2,4-pyrimidinediamine]
[3]
  HIF-1α expression: inhibited expression
[4]
  CNV area: comparable to the dramatic effect received from Aflibercept injection
Choroid explants
  area of the sprouting vessels: inhibited the area of the sprouting vessels
HUVECs [1]; HUVECs at 3×10^3 and 1×10^3 cells/well
  dependence of proliferation inhibition on the initial number of cells: independent from the initial number of cells
HUVECs [1]; HUVECs, 72 hours
  decrease of IC50 by daily dosing in comparison with IC50 of SD regimen: more than a half
HUVECs [1]; [5]
  dose-proliferation inhibition relationship: linear inhibition of proliferation
HUVECs [1]; daily dosing, 72 hours, read-out: IC50 following daily dosing regimen
  IC50: 1.24 µM
HUVECs [1]; [6]
  IC50: 2.31 µM
HUVECs [2]
  inhibition of HUVECs migration: strongest migration inhibitor

## O=C(c1ccc(Cl)cc1)N(Cc1ccccc1)C1CCCCC1 [FPS-ZM1, 4-Chloro-N-cyclohexyl-N-(phenylmethyl)benzamide]
HUVECs [1]; [5]
  dose-proliferation inhibition relationship: linear inhibition of proliferation
HUVECs [1]; [6]
  IC50: 30 µM

## CCN(CC)CCCC(C)Nc1nc(C)cc(Nc2ccc3nc(C)cc(N)c3c2)n1.Cl.Cl.Cl (stereo not shown) [NSC 23766 trihydrochloride, N6-[2-(4-Diethylamino-1-methyl-butylamino)-6-methyl-pyrimidin-4-yl]-2-methyl-quinoline-4,6-diamine trihydrochloride]
HUVECs [1]; single 72-hour treatment
  IC50 (inhibitory concentration of 50% cell growth compared to control): No effect

## O=C(NCC(=O)N1CC[C@H](NC2CCC(O)(c3ccc(-c4ncccn4)cn3)CC2)C1)c1cccc(C(F)(F)F)c1 (stereo partly drawn) [PF-4136309, N-[2-[(3S)-3-[[4-hydroxy-4-(5-pyrimidin-2-ylpyridin-2-yl)cyclohexyl]amino]pyrrolidin-1-yl]-2-oxoethyl]-3-(trifluoromethyl)benzamide]
HUVECs [1]
  % of Inhibition ± SD: 25.7 ± 7.68%

## Aflibercept: Aflibercept (Eylea®), comparator injection in Laser-induced CNV model
[4]
  CNV area: dramatic effect

B1: Ranibizumab: a monoclonal antibody that inhibits VEGF (antibody, chains of the INN, looked up, V domains shown)
VH: EVQLVESGGGLVQPGGSLRLSCAASGYDFTHYGMNWVRQAPGKGLEWVGWINTYTGEPTYAADFKRRFTFSLDTSKSTAYLQMNSLRAEDTAVYYCAKYPYYYGTSHWYFDVWGQGTLVTVSS
VL: DIQLTQSPSSLSASVGDRVTITCSASQDISNYLNWYQQKPGKAPKVLIYFTSSLHSGVPSRFSGSGSGTDFTLTISSLQPEDFATYYCQQYSTVPWTFGQGTKVEIK
VEGF
  clinical outcome (vision, macular edema): rapidly and sustainably improved vision
